Test [1] addresses T1, human full-length MKNK1 (Homo sapiens, UniProt Q9BUB5, T385D).
T1 construct: GST (N); purchased Carna Biosciences 02-145; host or cells: insect cells (baculovirus expression system)
Description: MKNK1 kinase assay (TR-FRET). It is filed as biochemical. The conditions noted are these: 10 μM ATP. The text has this: MKNK1-inhibitory activity of compounds of the present invention was quantified employing the MKNK1 TR-FRET assay as described in the following paragraphs.
A recombinant fusion protein of Glutathione-S-Transferase (GST, N-terminally) and human full-length MKNK1 (amino acids 1-424 and T344D of accession number BAA 19885.1), expressed in insect cells using baculovirus expression system and purified via glutathione sepharose affinity chromatography, was purchased from Carna Biosciences (product no 02-145) and used as enzyme. As substrate for the kinase reaction the biotinylated peptide biotin-Ahx-IKKRKLTRRKSLKG (C-terminus in amide form) was used which can be purchased e.g. form the company Biosyntan (Berlin-Buch, Germany).
For the assay 50 nL of a 100 fold concentrated solution of the test compound in DMSO was pipetted into a black low volume 384 well microtiter plate (Greiner Bio-One, Frickenhausen, Germany), 2 μL of a solution of MKNK1 in aqueous assay buffer [50 mM HEPES pH 7.5, 5 mM MgCl2, 1.0 mM dithiothreitol, 0.005% (v/v) Nonidet-P40 (Sigma)] was added and the mixture was incubated for 15 min at 22° C. to allow pre-binding of the test compounds to the enzyme before the start of the kinase reaction. Then the kinase reaction was started by the addition of 3 μL of a solution of adenosine-tri-phosphate (ATP, 16.7 μM=>final conc. in the 5 μL assay volume is 10 μM) and substrate (0.1 μM=>final conc. in the 5 μL assay volume is 0.06 μM) in assay buffer and the resulting mixture was incubated for a reaction time of 45 min at 22° C. The concentration of MKNK1 was adjusted depending of the activity of the enzyme lot and was chosen appropriate to have the assay in the linear range, typical concentrations were in the range of 0.05 μg/mL. The reaction was stopped by the addition of 5 μL of a solution of TR-FRET detection reagents (5 nM streptavidine-XL665 [Cisbio Bioassays, Codolet, France] and 1 nM anti-ribosomal protein […] (pSer236)-antibody from Invitrogen [#44921G] and 1 nM LANCE EU-W1024 Labeled ProteinG [Perkin-Elmer, product no. AD0071]) in an aqueous EDTA-solution (100 mM EDTA, 0.1% (w/v) bovine serum albumin in 50 mM HEPES pH 7.5).
The resulting mixture was incubated for 1 h at 22° C. to allow the formation of complex between the phosphorylated biotinylated peptide and the detection reagents. Subsequently the amount of phosphorylated substrate was evaluated by measurement of the resonance energy transfer from the Eu-chelate to the streptavidine-XL. Therefore, the fluorescence emissions at 620 nm and 665 nm after excitation at 350 nm were measured in a TR-FRET reader, e.g. a Rubystar (BMG Labtechnologies, Offenburg, Germany) or a Viewlux (Perkin-Elmer). […]

For test [2], the target named is T1, human full-length MKNK1. Description: MKNK1 kinase high ATP assay (TR-FRET). The format is biochemical. The conditions noted are these: 2 mM ATP, after preincubation with MKNK1; read-out: MKNK1 IC50 (MKNK1 high ATP). Summed up: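 Compound was preincubated 15 min at 22° C. with MKNK1 in 50 mM HEPES pH 7.5, 5 mM MgCl2, 1.0 mM DTT, then the reaction ran 30 min at 22° C. with 2 mM ATP and 0.06 μM biotinylated peptide (final).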
In general terms: TR-FRET usually uses a lanthanide donor and a delayed reading to cut background.

The subject of test [3] is eIF4E Ser209 phosphorylation in A549 cells. Description: AlphaScreen SureFire eIF4E Ser209 phosphorylation assay in A549 cells with 20% FCS stimulation. It is filed as cell-based. The conditions noted are these: Homo sapiens, read-out: pEIF4e (IC50 of the EIF4e phosphorylation). The text has this:
The AlphaScreen SureFire eIF4E Ser209 phoshorylation assay is used to measure the phosphorylation of endogenous eIF4E in cellular lysates. The AlphaScreen SureFire technology allows the detection of phosphorylated proteins in cellular lysates. In this assay, sandwich antibody complexes, which are only formed in the presence of the analyte (p-eIF4E Ser209), are captured by AlphaScreen donor and acceptor beads, bringing them into close proximity. The excitation of the donor bead provokes the release of singlet oxygen molecules that triggers a cascade of energy transfer in the Acceptor beads, resulting in the emission of light at 520-620 nm.
Surefire EIF4e Alphascreen in A549 cells with 20% FCS stimulation
For the assay the AlphaScreen SureFire p-eIF4E Ser209 10K Assay Kit and the AlphaScreen ProteinA Kit (for 10K assay points) both from Perkin Elmer were used. On day one 50.000 A549 cells were plated in a 96-well plate in 100 μL per well in growth medium (DMEM/Hams' F12 with stable Glutamin, 10% FCS) and incubated at 37° C. After attachment of the cells, medium was changed to starving medium (DMEM, 0.1% FCS, without Glucose, with Glutamin, supplemented with 5 g/L Maltose). On day two, test compounds were serially diluted in 50 μL starving medium with a final DMSO concentration of 1% and were added to A549 cells in test plates at a final concentration range from as high 10 μM to as low 10 nM depending on the activities of the tested compounds. Treated cells were incubated at 37° C. for 2 h. 37 ul FCS was added to the wells (=final FCS concentration 20%) for 20 min. Then medium was removed and cells were lysed by adding 50 μL lysis buffer. Plates were then agitated on a plate shaker for 10 min. After 10 min lysis time, 4 μL of the lysate is transferred to a 384 well plate (Proxiplate from Perkin Elmer) and 5 μL Reaction Buffer plus Activation Buffer mix containing AlphaScreen Acceptor beads was added. Plates were sealed with TopSeal-A adhesive film, gently agitated on a plate shaker for 2 hours at room temperature. Afterwards 2 μL Dilution buffer with AlphaScreen Donor beads were added under subdued light and plates were sealed again with TopSeal-A adhesive film and covered with foil. Incubation takes place for further 2 h gently agitation at room temperature. Plates were then measured in an EnVision reader (Perkin Elmer) with the AlphaScreen program. Each data point (compound dilution) was measured as triplicate.
The IC50 values were determined by means of a 4-parameter fit using the company's own software.
In general terms: Alpha assays give light when donor and acceptor beads are brought close together.

T1 sequence (Q9BUB5 1-424 isoform Q9BUB5-2 T344D): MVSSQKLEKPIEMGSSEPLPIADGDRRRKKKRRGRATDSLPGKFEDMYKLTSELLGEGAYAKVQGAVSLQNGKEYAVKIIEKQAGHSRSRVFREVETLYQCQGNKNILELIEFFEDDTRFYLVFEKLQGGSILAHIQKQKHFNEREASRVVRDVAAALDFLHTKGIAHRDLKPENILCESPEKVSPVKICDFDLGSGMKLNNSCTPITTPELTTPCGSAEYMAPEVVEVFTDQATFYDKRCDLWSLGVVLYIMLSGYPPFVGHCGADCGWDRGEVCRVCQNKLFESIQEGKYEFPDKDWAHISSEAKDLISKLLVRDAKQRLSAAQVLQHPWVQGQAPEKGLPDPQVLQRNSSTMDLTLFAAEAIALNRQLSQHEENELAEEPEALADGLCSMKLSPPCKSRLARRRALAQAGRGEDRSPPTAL

By IC50 is commonly meant the midpoint of a concentration-inhibition curve. For `CS(=O)(=O)CCCNC(=O)C1CCc2c(sc3ncnc(Nc4ccc5[nH]ncc5c4)c23)C1` (centres unmarked) [Example 4, 4-(1H-Indazol-5-ylamino)-N-[3-(methylsulfonyl)propyl]-5,6,7,8-tetrahydro[1]benzothieno[2,3-d]pyrimidine-7-carboxamide], the IC50 on human full-length MKNK1 [1] was determined as 8 nM; at human full-length MKNK1 [2], 9 nM.

On to `CCOC(=O)C1CCc2c(sc3ncnc(Nc4cc5cn[nH]c5cc4OC)c23)C1` (centres unmarked) [Example 56, Ethyl 4-[(6-methoxy-1H-indazol-5-yl)amino]-5,6,7,8-tetrahydro[1]benzothieno[2,3-d]pyrimidine-7-carboxylate], for which the figures for the IC50 (against human full-length MKNK1 [1]; on human full-length MKNK1 [2]; in test [3]) were 2 nM, 2 nM and 165 nM, respectively.
